Source: paper PMC8955975, “Pyrazolo[4,3-c]pyridine Sulfonamides as Carbonic Anhydrase Inhibitors: Synthesis, Biological and In Silico Studies” (Pharmaceuticals, 2022)
“And” between values parts separate entries of the source, which are not always exact repeats. Equal entries are not always repeated.

Key:
[1] = target: BpsCAγ (Burkholderia pseudomallei, UniProt Q63SQ4); format: biochemical; settings: read-out: KI BpsCAγ
[2] = target: γ-CA from E. coli (Escherichia coli, UniProt P0A9W9); format: biochemical; settings: for Ki: stopped-flow CO2 hydrase assay, mean from 3 different assays; for selectivity index (SI) against BpsCAβ: E. coli γ versus BpsCAβ; for selectivity index (SI) against BpsCAγ: E. coli γ versus BpsCAγ; for selectivity index (SI) against E. coli β: E. coli γ versus E. coli β; for selectivity index (SI) against PgiCAγ: E. coli γ versus PgiCAγ
[3] = target: hCA IX (Homo sapiens, UniProt Q16790); test: stopped-flow CO2 hydrase assay, hCA IX; format: biochemical; settings: for selectivity index (SI) for hCA I: hCA IX inhibitor, hCA IX versus hCA I; for Ki: stopped-flow CO2 hydrase assay, mean from 3 different assays
[4] = target: hCA I (Homo sapiens, UniProt P00915); test: stopped-flow CO2 hydrase assay, hCA I; format: biochemical; settings: for Ki: stopped-flow CO2 hydrase assay, mean from 3 different assays
[5] = target: hCA XII (Homo sapiens, UniProt O43570); test: stopped-flow CO2 hydrase assay, hCA XII; format: biochemical; settings: for Ki: stopped-flow CO2 hydrase assay, mean from 3 different assays
[6] = target: β-CA from E. coli (Escherichia coli, UniProt P61517); test: stopped-flow CO2 hydrase assay, E. coli β-CA; format: biochemical
[7] = target: γ-CA from Porphyromonas gingivalis (PgiCAγ) (Porphyromonas gingivalis, UniProt Q7MV79); format: biochemical; settings: for Ki: stopped-flow CO2 hydrase assay, mean from 3 different assays
[8] = target: β-CA from Burkholderia pseudomallei (BpsCAβ) (Burkholderia pseudomallei, UniProt Q63Y17); format: biochemical; settings: for Ki: read-out: KI BpsCAβ
[9] = target: β-CA from Vibrio cholerae (VhCAβ) (Vibrio cholerae, UniProt A0A086SLX8); test: biochemical
[10] = target: hCA II (Homo sapiens, UniProt P00918); test: stopped-flow CO2 hydrase assay, hCA II; format: biochemical; settings: for Ki: stopped-flow CO2 hydrase assay, mean from 3 different assays, read-out: KI hCAII; for selectivity index (SI) toward hCA I / selectivity index (SI) towards hCA IX / selectivity index (SI) towards hCA XII: hCA II inhibitor; for selectivity index (SI) toward hCA I: hCA II versus hCA I; for selectivity index (SI) towards hCA IX: hCA II versus hCA IX; for selectivity index (SI) towards hCA XII: hCA II versus hCA XII

hCA XII, sequence (O43570 25-354): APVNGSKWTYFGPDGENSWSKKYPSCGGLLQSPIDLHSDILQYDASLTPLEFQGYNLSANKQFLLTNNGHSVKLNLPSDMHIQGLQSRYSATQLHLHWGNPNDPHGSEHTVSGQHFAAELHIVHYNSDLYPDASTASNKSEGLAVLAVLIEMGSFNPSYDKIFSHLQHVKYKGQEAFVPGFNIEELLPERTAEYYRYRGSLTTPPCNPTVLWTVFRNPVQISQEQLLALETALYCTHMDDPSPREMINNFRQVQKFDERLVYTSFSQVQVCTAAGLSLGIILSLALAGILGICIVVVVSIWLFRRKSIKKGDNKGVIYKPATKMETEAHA
hCA I, sequence (P00915 whole entry): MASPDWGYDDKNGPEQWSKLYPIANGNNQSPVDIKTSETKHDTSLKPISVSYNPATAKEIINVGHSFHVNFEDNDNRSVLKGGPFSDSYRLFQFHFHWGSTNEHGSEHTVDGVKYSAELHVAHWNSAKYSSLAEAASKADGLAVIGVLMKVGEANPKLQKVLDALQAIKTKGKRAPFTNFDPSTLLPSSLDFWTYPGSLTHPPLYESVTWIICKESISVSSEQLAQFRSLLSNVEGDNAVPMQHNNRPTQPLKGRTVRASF
γ-CA from E. coli, sequence (P0A9W9 whole entry): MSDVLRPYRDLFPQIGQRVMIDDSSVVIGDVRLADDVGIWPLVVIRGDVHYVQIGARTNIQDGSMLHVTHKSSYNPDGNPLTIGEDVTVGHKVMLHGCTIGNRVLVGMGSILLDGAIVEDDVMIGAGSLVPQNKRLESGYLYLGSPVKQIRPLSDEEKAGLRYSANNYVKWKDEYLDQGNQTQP
β-CA from Burkholderia pseudomallei (BpsCAβ), sequence (Q63Y17 1-256): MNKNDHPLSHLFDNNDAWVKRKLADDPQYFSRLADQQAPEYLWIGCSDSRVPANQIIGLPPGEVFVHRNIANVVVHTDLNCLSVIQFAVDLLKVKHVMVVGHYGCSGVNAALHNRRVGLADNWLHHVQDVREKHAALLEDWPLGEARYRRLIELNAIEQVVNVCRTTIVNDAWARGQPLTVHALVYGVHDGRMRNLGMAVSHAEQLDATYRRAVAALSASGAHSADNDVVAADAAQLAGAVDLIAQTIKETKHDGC
β-CA from E. coli, sequence (P61517 whole entry): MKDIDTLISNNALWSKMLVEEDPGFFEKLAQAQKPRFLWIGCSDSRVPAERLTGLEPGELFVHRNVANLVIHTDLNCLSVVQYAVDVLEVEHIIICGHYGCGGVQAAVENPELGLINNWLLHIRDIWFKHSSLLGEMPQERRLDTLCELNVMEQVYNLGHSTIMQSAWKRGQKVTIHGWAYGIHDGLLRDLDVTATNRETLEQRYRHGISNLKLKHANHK
BpsCAγ, sequence (Q63SQ4 1-174): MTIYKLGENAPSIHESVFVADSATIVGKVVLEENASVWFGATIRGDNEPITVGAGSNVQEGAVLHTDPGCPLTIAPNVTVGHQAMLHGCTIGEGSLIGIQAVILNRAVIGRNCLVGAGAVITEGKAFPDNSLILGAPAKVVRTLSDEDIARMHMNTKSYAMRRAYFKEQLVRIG
γ-CA from Porphyromonas gingivalis (PgiCAγ), sequence (Q7MV79 entry or part of it): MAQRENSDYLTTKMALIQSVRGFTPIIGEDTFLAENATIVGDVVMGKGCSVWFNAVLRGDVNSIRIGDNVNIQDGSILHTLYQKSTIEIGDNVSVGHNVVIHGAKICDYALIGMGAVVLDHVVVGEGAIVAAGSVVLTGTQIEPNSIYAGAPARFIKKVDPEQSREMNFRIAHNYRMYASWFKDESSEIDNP
β-CA from Vibrio cholerae (VhCAβ), sequence (A0A086SLX8 entry or part of it): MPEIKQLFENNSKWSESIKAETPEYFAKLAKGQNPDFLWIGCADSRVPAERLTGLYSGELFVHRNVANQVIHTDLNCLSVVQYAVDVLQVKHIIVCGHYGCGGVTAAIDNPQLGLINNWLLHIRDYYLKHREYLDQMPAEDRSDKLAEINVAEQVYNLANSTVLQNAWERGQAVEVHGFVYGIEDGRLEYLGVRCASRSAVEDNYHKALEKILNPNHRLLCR

In the case of `COC(=O)c1cn(CCS(N)(=O)=O)cc2c(=O)[nH]nc1-2` [Compound 1a, Methyl 3-oxo-5-(2-sulfamoylethyl)-3,5-dihydro-2H-pyrazolo[4,3-c]pyridine-7-carboxylate], the Ki [1] is reported as 913 nM, the Ki [2] is reported as 61.8 nM and the “selectivity index (SI) for hCA I” value [3] is reported as 81.8. The Ki [3] was 97.9 nM, the melting point was > 300 °C and the Ki [4] was 8010 nM. It also gave a Ki [5] of 282 nM, a Ki [6] of 862 nM and a Ki [7] of 783 nM. The Ki [8] was 654 nM, the Ki [9] was 2330 nM and the Ki [10] was 7330 nM.
With `COC(=O)c1cn(-c2ccc(S(N)(=O)=O)cc2)cc2c(=O)[nH]nc1-2` [Compound 1b, Methyl 3-oxo-5-(4-sulfamoylphenyl)-3,5-dihydro-2H-pyrazolo[4,3-c]pyridine-7-carboxylate] the Ki [1] was 513 nM, the “selectivity index (SI) against BpsCAβ” value ([2]; E. coli γ-CA inhibitor) was 3.96 and the “selectivity index (SI) against BpsCAγ” value ([2]; E. coli γ-CA inhibitor) was 8.88. For the same compound, the “selectivity index (SI) against E. coli β” value ([2]; E. coli γ-CA inhibitor) was 59.8, the “selectivity index (SI) against PgiCAγ” value ([2]; E. coli γ-CA inhibitor) was 1.59 and 1.57 and 1.5 and the “selectivity index (SI) against VhCAβ” value ([2]; E. coli γ-CA inhibitor, E. coli γ versus VhCAβ) was 14.6. The Ki [2] was 57.8 nM, the Ki [3] was 319 nM and the melting point was > 300 °C. The “decreased activity against hCA I” value ([4]; compared with 1f) was ~ 2.7 times, the Ki [4] was 157 nM and the Ki [5] was 358 nM. The Ki [6] was 3460 nM, the Ki [7] was 91 nM and the Ki [8] was 229 nM. It also gave a Ki [9] of 844 nM and a Ki [10] of 51.4 nM.
With `COC(=O)c1cn(-c2cccc(S(N)(=O)=O)c2)cc2c(=O)[nH]nc1-2` [Compound 1c, Methyl 3-oxo-5-(3-sulfamoylphenyl)-3,5-dihydro-2H-pyrazolo[4,3-c]pyridine-7-carboxylate] the Ki [1] was 614 nM, the Ki [2] was 79.1 nM and the Ki [3] was 590 nM. The melting point was > 300 °C, the Ki [4] was 1440 nM and the Ki [5] was 143 nM. For the same compound, the Ki [6] was 3840 nM, the Ki [7] was 637 nM and the Ki [8] was 785 nM. It also gave a Ki [9] of 913 nM and a Ki [10] of 247 nM.
For `COC(=O)C1=CN(Cc2ccc(S(N)(=O)=O)cc2)C=C2C(=O)N=NC21` (stereo not drawn) [Compound 1d, 3-oxo-5-(4-sulfamoylbenzyl)-3,5-dihydro-2H-pyrazolo[4,3-c]pyridine-7-carboxylate], the melting point was > 300 °C.
For `COC(=O)c1cn(CCc2ccc(S(N)(=O)=O)cc2)cc2c(=O)[nH]nc1-2` [Compound 1e, Methyl 3-oxo-5-(4-sulfamoylphenethyl)-3,5-dihydro-2H-pyrazolo[4,3-c]pyridine-7-carboxylate], the Ki [1] was 1340 nM, the “selectivity index (SI) against BpsCAβ” value ([2]; E. coli γ-CA inhibitor) was 3.96 and the “selectivity index (SI) against BpsCAγ” value ([2]; E. coli γ-CA inhibitor) was 8.88. For the same compound, the “selectivity index (SI) against E. coli β” value ([2]; E. coli γ-CA inhibitor) was 59.8, the “selectivity index (SI) against PgiCAγ” value ([2]; E. coli γ-CA inhibitor) was 1.59 and the Ki [2] was 58.1 nM. For the same compound, the Ki [3] was 849 nM, the melting point was > 300 °C and the Ki [4] was 864 nM. The Ki [5] was 397 nM, the Ki [6] was 3140 nM and the Ki [7] was 96.1 nM. For the same compound, the Ki [8] was 683 nM, the Ki [9] was 840 nM and the Ki [10] was 658 nM.
Work on `COC(=O)c1cn(CC(=O)Nc2ccc(S(N)(=O)=O)cc2)cc2c(=O)[nH]nc1-2` [Compound 1f] yielded a Ki [1] of 2180 nM, a Ki [2] of 66.8 nM and a Ki [3] of 907 nM. The melting point was > 300 °C, the Ki [4] was 58.8 nM and the Ki [5] was 475 nM. For the same compound, the Ki [6] was 3650 nM, the Ki [7] was 668 nM and the Ki [8] was 236 nM. For the same compound, the Ki [9] was 467 nM, the “selectivity index (SI) toward hCA I” value [10] was 9 and the “selectivity index (SI) towards hCA IX” value [10] was 137.5. The “selectivity index (SI) towards hCA XII” value [10] was 71.9 and the Ki [10] was 6.6 nM.
`CC(=O)N1CC(Nc2ccc(S(N)(=O)=O)cc2)=CC1=O` [Compound 1g, 4-((1-Acetyl-5-oxo-2,5-dihydro-1H-pyrrol-3-yl)amino)benzenesulfonamide] gave a Ki [1] of 97.1 nM, a Ki [2] of 205 nM and a Ki [3] of 294 nM. It also gave a melting point of 285 to 287 °C, a Ki [4] of 66.8 nM and a Ki [5] of 509 nM. The Ki [6] was 454 nM, the “selectivity index (SI) towards VhCAβ” value ([7]; PgiCAγ inhibitor, PgiCAγ versus VhCAβ) was 17.4 and the Ki [7] was 83.1 nM. For the same compound, the Ki [8] was 664 nM, the Ki [9] was 1450 nM and the Ki [10] was 41.7 nM.
In the case of `CC(=O)N1CC(Nc2cccc(S(N)(=O)=O)c2)=CC1=O` [Compound 1h, 3-((1-Acetyl-5-oxo-2,5-dihydro-1H-pyrrol-3-yl)amino)benzenesulfonamide], the Ki [1] is reported as 833 nM, the Ki [2] is reported as 524 nM and the Ki [3] is reported as 94.3 nM. It also gave a Ki [4] of 136 nM, a Ki [5] of 714 nM and a Ki [6] of 712 nM. For the same compound, the Ki [7] was 90 nM, the Ki [8] was 2960 nM and the Ki [9] was 2620 nM. It also gave a Ki [10] of 61.7 nM.
In the case of `Cc1cc(O)cc(=O)n1CCS(N)(=O)=O` [Compound 1i, 2-(4-hydroxy-6-methyl-2-oxopyridin-1(2H)-yl)ethane-1-sulfonamide], the Ki [1] is reported as 192 nM, the Ki [2] is reported as 92.7 nM and the “selectivity index (SI) for hCA I” value [3] is reported as 74.9. The Ki [3] was 79.6 nM, the melting point was 243 to 245 °C and the Ki [4] was 5440 nM. For the same compound, the Ki [5] was 105 nM, the Ki [6] was 3050 nM and the Ki [7] was 95.6 nM. For the same compound, the “selectivity index (SI) against VhCAβ” value [8] was 23.2, the “selectivity index (SI) against the β-CA from E. coli” value [8] was 31.6 and the Ki [8] was 96.4 nM. The Ki [9] was 2240 nM and the Ki [10] was 6790 nM.
`NS(=O)(=O)CCNC=C1C(=O)Oc2ccccc2C1=O` [Compound 1j, 2-(((2,4-dioxochroman-3-ylidene)methyl)amino)ethane-1-sulfonamide] gave a Ki [1] of 625 nM, a Ki [2] of 67.1 nM and a Ki [3] of 97.8 nM. It also gave a melting point of 197 to 199 °C, a Ki [4] of 3860 nM and a Ki [5] of 285 nM. The Ki [6] was 94.9 nM, the Ki [7] was 84.3 nM and the Ki [8] was 789 nM. It also gave a Ki [9] of 642 nM and a Ki [10] of 5710 nM.
Work on `CC12CC(c3ccccc3O1)C(C(N)=O)C(=O)N2CCc1ccc(S(N)(=O)=O)cc1` (stereo not drawn) [Compound 1k, 2-methyl-4-oxo-3-(4-sulfamoylphenethyl)-3,4,5,6-tetrahydro-2H-2,6-methanobenzo[g][1,3]oxazocine-5-carboxamide] yielded a Ki [1] of 952 nM, a Ki [2] of 63.5 nM and a Ki [3] of 421 nM. The melting point was 225 to 227 °C, the Ki [4] was 88.3 nM and the “selectivity index (SI) towards hCA IX” value ([5]; hCA XII inhibitor, hCA XII versus hCA IX) was 12.2. For the same compound, the Ki [5] was 34.5 nM, the Ki [6] was 3860 nM and the Ki [7] was 202 nM. For the same compound, the Ki [8] was 212 nM, the Ki [9] was 356 nM and the “selectivity index (SI) toward hCA I” value [10] was 15.8. For the same compound, the “selectivity index (SI) towards hCA IX” value [10] was 75.25, the “selectivity index (SI) towards hCA XII” value [10] was 6 and the Ki [10] was 5.6 nM.
